Where two headings read alike, the source gives them in different places.
Test: Phase I study CXR1002-001: plasma pharmacokinetics (LC-MS/MS)
Assay type: in vivo, human
Settings: human, plasma, oral; for concentration at 843 h / concentration at 844 h / concentration at 864 h / concentration at 2 h / concentration at 3 h / concentration at 4 h / concentration at 24 h / concentration at 168 h / concentration at 170 h / concentration at 171 h / concentration at 172 h / concentration at 192 h / concentration at 336 h / concentration at 338 h / concentration at 339 h / concentration at 340 h / concentration at 360 h / concentration at 506 h / concentration at 507 h / concentration at 508 h / concentration at 528 h / concentration at 672 h / concentration at 674 h / concentration at 675 h / concentration at 676 h / concentration at 696 h / concentration at 840 h / concentration at 842 h / concentration at 504 h: read-out: Concentration; for concentration at 864 h: 864 hr (Day 37); for concentration at 24 h: 24 hr (Day 2); for concentration at 168 h: 168 hr (Day 8); for concentration at 192 h: 192 hr (Day 9); for concentration at 336 h: 336 hr (Day 15); for concentration at 360 h: 360 hr (Day 16); for concentration at 528 h: 528 hr (Day 23); for concentration at 672 h: 672 hr (Day 29); for concentration at 696 h: 696 hr (Day 30); for concentration at 840 h: 840 hr (Day 36); for concentration at 504 h: 504 hr (Day 22)
From the text: PK samples, PD (fasting) samples, blood glucose, and blood triglyceride samples, were taken over a 6-week period.
Dose limiting toxicity (DLT) will be based on the toxicity assessments over the first 3-week period of the repeat dosing schedule. PK samples (single blood sample) were taken on the following basis: • Every 6 weeks during the repeat dosing phase • If dosing is interrupted or stopped, samples will be taken at intervals according to patient convenience • PK sampling for safety evaluation may take place at any time, as clinically indicated
Plasma samples were collected after the single 50 mg dose at the following timepoints: Pre-dose, and then 0.25, 0.5, 0.75, 1, 1.5, 2, 3, 4, 6, 24, 48, and 72 hours after administration and then once weekly at weeks 2, 3, 4, 5, and 6 (days 8, 15, 22, 29, and 36). For patients treated with the weekly repeat dose, plasma samples were collected at the following timepoints: Pre-dose and then 2, 3, 4 and 24 hours after administration for a total of 6 weeks. Thereafter a single sample was collected every 6 weeks for monitoring of exposure during long term treatment. Plasma samples were processed at site and stored at −80° C. prior to batch shipment to the analytical laboratory.

[1] = 200 mg, Patient 009 Dose 200 mg
[2] = 200 mg, Patient 010 Dose 200 mg
[3] = 300 mg, Patient 011 Dose 300 mg
[4] = 300 mg, Patient 012 Dose 300 mg
[5] = 300 mg, Patient 013 Dose 300 mg
[6] = 300 mg, Patient 014 Dose 300 mg

O=C(O)C(F)(F)C(F)(F)C(F)(F)C(F)(F)C(F)(F)C(F)(F)C(F)(F)F [CXR1002]
concentration at 843 h [1]: 373 µM
concentration at 844 h [1]: 329 µM
concentration at 864 h [1]: 346 µM
concentration at 92 day (200 mg, Patient 009 Dose 200 mg, Day 92): 456 µM
concentration at 19 week (200 mg, Patient 009 Dose 200 mg, Week 19): 618 µM
concentration at 25 week (200 mg, Patient 009 Dose 200 mg, Week 25): 501 µM
concentration at 32 week (200 mg, Patient 009 Dose 200 mg, Week 32): 540 µM
concentration at 0 h (200 mg, Patient 010 Dose 200 mg, 0 hr): 0 nM
concentration at 2 h [2]: 21.1 µM
concentration at 3 h [2]: 30.4 µM
concentration at 4 h [2]: 33.6 µM
concentration at 24 h [2]: 58.6 µM
concentration at 168 h [2]: 51 µM
concentration at 170 h [2]: 81.7 µM
concentration at 171 h [2]: 81.4 µM
concentration at 172 h [2]: 119 µM
concentration at 192 h [2]: 101 µM
concentration at 336 h [2]: 98.8 µM
concentration at 338 h [2]: 118 µM
concentration at 339 h [2]: 103 µM
concentration at 340 h [2]: 66.7 µM
concentration at 360 h [2]: 175 µM
concentration at 506 h [2]: 207 µM
concentration at 507 h [2]: 276 µM
concentration at 508 h [2]: 187 µM
concentration at 528 h [2]: 191 µM
concentration at 672 h [2]: 192 µM
concentration at 674 h [2]: 193 µM
concentration at 675 h [2]: 237 µM
concentration at 676 h [2]: 231 µM
concentration at 696 h [2]: 256 µM
concentration at 840 h [2]: 243 µM
concentration at 842 h [2]: 188 µM
concentration at 843 h [2]: 232 µM
concentration at 844 h [2]: 223 µM
concentration at 864 h [2]: 221 µM
concentration at 2 h [3]: 101 µM
concentration at 3 h [3]: 107 µM
concentration at 4 h [3]: 112 µM
concentration at 24 h [3]: 95.9 µM
concentration at 168 h [3]: 57.9 µM
concentration at 170 h [3]: 112 µM
concentration at 171 h [3]: 122 µM
concentration at 172 h [3]: 138 µM
concentration at 192 h [3]: 178 µM
concentration at 336 h [3]: 131 µM
concentration at 338 h [3]: 160 µM
concentration at 339 h [3]: 160 µM
concentration at 340 h [3]: 147 µM
concentration at 360 h [3]: 237 µM
concentration at 504 h [3]: 145 µM
concentration at 506 h [3]: 204 µM
concentration at 507 h [3]: 288 µM
concentration at 508 h [3]: 244 µM
concentration at 672 h [3]: 255 µM
concentration at 674 h [3]: 291 µM
concentration at 675 h [3]: 304 µM
concentration at 676 h [3]: 243 µM
concentration at 696 h [3]: 326 µM
concentration at 840 h [3]: 270 µM
concentration at 842 h [3]: 384 µM
concentration at 843 h [3]: 350 µM
concentration at 844 h [3]: 282 µM
concentration at 864 h [3]: 387 µM
concentration at 12 week (300 mg, Patient 011 Dose 300 mg, Week 12): 574 µM
concentration at 2 h [4]: 91.4 µM
concentration at 3 h [4]: 93.5 µM
concentration at 4 h [4]: 123 µM
concentration at 24 h [4]: 74 µM
concentration at 168 h [4]: 64.8 µM
concentration at 171 h [4]: 148 µM
concentration at 172 h [4]: 126 µM
concentration at 192 h [4]: 152 µM
concentration at 336 h [4]: 141 µM
concentration at 339 h [4]: 196 µM
concentration at 340 h [4]: 213 µM
concentration at 360 h [4]: 218 µM
concentration at 504 h [4]: 181 µM
concentration at 506 h [4]: 278 µM
concentration at 507 h [4]: 261 µM
concentration at 508 h [4]: 221 µM
concentration at 528 h [4]: 263 µM
concentration at 672 h [4]: 303 µM
concentration at 674 h [4]: 340 µM
concentration at 675 h [4]: 373 µM
concentration at 676 h [4]: 292 µM
concentration at 696 h [4]: 334 µM
concentration at 2 h [5]: 82.7 µM
concentration at 3 h [5]: 76 µM
concentration at 4 h [5]: 85.3 µM
concentration at 24 h [5]: 79.6 µM
concentration at 2 h [6]: 131 µM
concentration at 3 h [6]: 121 µM
concentration at 4 h [6]: 100 µM
concentration at 24 h [6]: 102 µM
concentration at 168 h [6]: 79.6 µM
concentration at 170 h [6]: 154 µM
concentration at 171 h [6]: 178 µM
concentration at 172 h [6]: 180 µM
concentration at 192 h [6]: 178 µM
concentration at 336 h [6]: 173 µM
concentration at 338 h [6]: 297 µM
concentration at 339 h [6]: 270 µM
concentration at 340 h [6]: 261 µM
concentration at 504 h [6]: 288 µM
concentration at 506 h [6]: 336 µM
concentration at 507 h [6]: 374 µM
concentration at 528 h [6]: 420 µM
concentration at 672 h [6]: 355 µM
concentration at 674 h [6]: 389 µM
concentration at 675 h [6]: 400 µM
concentration at 676 h [6]: 411 µM
concentration at 696 h [6]: 478 µM
concentration at 840 h [6]: 426 µM
concentration at 842 h [6]: 506 µM

From patent publication US20130029928A1 (priority 2010, published 2013)
